# Results: PubChem BioAssay (NCI)
#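 Following 48 hours of exposure in 96-well plates, responses at five concentrations were used to interpolate endpoints linearly. TGI: total growth inhibition.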
# Test system: P388/ADR leukemia
# Test: NCI tumour cell line growth inhibition, 48 h
smiles,measurement,value
O=C(O)/C=C/C(=O)N1C/C(=C\c2ccccc2)C(=O)/C(=C/c2ccccc2)C1,TGI,> 70.7 µM
